{"source": "patent US7863415B2", "about": "(The Regents of the University of California, priority 2004, dated 2011)", "key": {"U87 glioma cells [1]": {"test_system": "U87 glioma cells", "experiment": "Glioma cell proliferation, manual cell counts with trypan blue", "format": "cell-based, human", "conditions": "glioma cells", "method": "C(5)-amiloride glycine conjugate (C5am-Gly) inhibits NHE1 in U87 glioma cells and is antiproliferative. […] The inhibitory activity of C5am-Gly against NCX was tested and a systematic log dose screen of C5am-Gly against a panel of glioma cells and primary astrocytes was performed.\nManual cell counts with dye exclusion assays. Identical concentrations of glioma cells can be plated on 60 mm dishes and grown until 50% confluent. Following drug treatments, media containing floating cells can be collected in suspension. Adherent cells can be rinsed in calcium- and magnesium-free phosphate-buffered saline (PBS-CMF) and removed by incubation with 0.25% v/v trypsin for 5 minutes (37° C.). Cell suspensions can be combined with the floating fraction and centrifuged at 350×g for 5 minutes. The resulting pellet (one per dish) can be resuspended in equal volumes of PBS-CMF with 0.4% trypan blue and/or 500 nM Sytox Green. 10 μL aliquots of the suspension can be plated on a hemocytometer, and cells can be counted 5 minutes after staining. Simultaneous staining of cells with trypan (TB) and Sytox Green (SG) can be visualized by switching between visible light and fluorescein green."}, "[2]": {"experiment": "Neuropathological and neurobehavioral effects of intracerebral/intrathecal amiloride infusion in rats", "quoted_text": "Rats were subjected to a “probe” trial following the last acquisition trial in MWM assessment following tumor and drug administration. The hidden platform was removed and the rat was allowed to swim for 60 seconds. The duration of time spent in the “target” quadrant (formerly containing the platform) was recorded."}, "[3]": {"test_system": "intracerebral U87 glioma xenografts", "experiment": "Intracerebral U87 glioma xenografts in athymic rats, amiloride infusion by Alzet pump, tumor volume by NMR and histology", "format": "in vivo, rat", "conditions": "for Doubling time, day postimplant 10: before drug infusion (day 12-17); for Doubling time, day postimplant 12 / Doubling time, day postimplant 15 / Doubling time, day postimplant 17: drug infusion day 12-17", "method": "U87 glioma cells were stereotaxically implanted into the corpus striatum of brains of athymic (i.e., T-cell deficient) rats and characterized as an in vivo treatment model. Nissl-stained coronal sections were used to calculate tumor volumes from day 4 to day 28 post-implantation. T1-weighted NMR images were acquired from a separate set of animals to serially measure tumor volumes of intracerebral U87 glioma xenografts.\nBrdU was injected intraperitoneally 3 h prior to perfusion fixation with paraformaldehyde in deeply anesthetized animals."}, "NHE1 and NCX": {"test_system": "NHE1 and NCX", "conditions": "NHE1 and NCX inhibitors from the literature; cited from earlier work"}, "NHE1 [4]": {"target": "T1, NHE1 (Rattus norvegicus, UniProt P26431)", "T1 construct": "in primary rat astrocytes (6 μM) (McLean et al., supra); host or cells: primary rat astrocytes", "conditions": "read-out: IC50 of amiloride (NHE); primary rat astrocytes; cited from earlier work"}, "astrocytes": {"test_system": "astrocytes", "format": "cell-based", "conditions": "amiloride ≧500 μM, 48-72 hours", "from_the_text": "Cell culture. The five human glioma cell lines can be obtained from the American Tissue Culture Collection (ATCC). Primary cultures of rat astrocytes can be isolated from the cerebral cortex of neonatal rats (0-1 day old). For measurements of [H^+]i, [Ca^2+]i, and [Na^+]i, cells can be grown on glass coverslips coated with rat tail collagen type I."}, "NCX": {"test_system": "NCX", "conditions": "read-out: IC50 for NCX inhibition; cited from earlier work"}, "U87 glioma cells [5]": {"test_system": "U87 glioma cells"}, "NHE1 [6]": {"target": "T2, NHE1 (Homo sapiens, UniProt P19634)", "T2 sequence (P19634 whole entry)": "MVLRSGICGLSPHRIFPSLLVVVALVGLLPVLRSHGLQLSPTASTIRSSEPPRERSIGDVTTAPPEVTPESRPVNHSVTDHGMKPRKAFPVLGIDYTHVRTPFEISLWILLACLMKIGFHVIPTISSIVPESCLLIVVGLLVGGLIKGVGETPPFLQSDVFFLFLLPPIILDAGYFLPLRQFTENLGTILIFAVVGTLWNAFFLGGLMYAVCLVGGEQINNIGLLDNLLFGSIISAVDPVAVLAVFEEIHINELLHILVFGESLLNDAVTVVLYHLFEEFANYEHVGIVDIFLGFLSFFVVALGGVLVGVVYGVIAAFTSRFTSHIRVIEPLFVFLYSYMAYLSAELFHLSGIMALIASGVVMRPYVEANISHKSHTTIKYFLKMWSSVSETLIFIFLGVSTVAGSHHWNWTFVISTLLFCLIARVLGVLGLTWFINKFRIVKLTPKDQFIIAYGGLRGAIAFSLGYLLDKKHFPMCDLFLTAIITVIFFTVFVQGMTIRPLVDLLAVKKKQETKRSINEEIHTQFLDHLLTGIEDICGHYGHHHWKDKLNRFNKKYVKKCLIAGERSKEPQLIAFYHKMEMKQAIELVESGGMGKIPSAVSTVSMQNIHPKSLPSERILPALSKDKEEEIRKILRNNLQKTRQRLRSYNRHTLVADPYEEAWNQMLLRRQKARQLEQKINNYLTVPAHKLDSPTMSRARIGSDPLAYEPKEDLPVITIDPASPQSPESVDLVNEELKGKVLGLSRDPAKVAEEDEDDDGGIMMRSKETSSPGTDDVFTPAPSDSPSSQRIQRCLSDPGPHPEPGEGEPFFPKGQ", "experiment": "NHE1 inhibition: sodium-dependent pHi recovery in BCECF-loaded U87 glial cells after ammonium chloride pre-pulse", "format": "cell-based", "design": "Sodium-dependent proton extrusion in U87 glial cells and in primary astrocytes is mediated by the type 1 sodium proton exchanger (NHE1); endogenous in cells; host or cells: U87 human glioma cells", "method": "Intracellular pH Measurements. U87 glial cells were grown on glass coverslips and incubated for 30 minutes at 37° C. with the pH-sensitive dye, 2′,7′-bis(2-carboxyethyl)-5(6)-carboxyfluorescein-AM (BCECF-AM; Molecular Probes, OR). Cells were rinsed with HEPES Ringer buffer twice and maintained at 37° C. for an additional 15 minutes to permit intracellular hydrolysis of the AM ester; trapping BCECF within the cells. Cells on coverslips were placed in a Hitachi F2000 fluorescent spectrophotometer and excited at 440 and 507 nm with fluorescent emissions recorded at 535 nm (Hegde et al., J. Pharmacol. Exp. Ther., 310:67-74 (2004)).\nNHE inhibition by compounds 3a and 3c was evaluated using intracellular pH (pHi) measurements in the U87 human glial cell line (Hegde et al., supra). Cells loaded with BCECF were then acidified using the ammonium chloride pre-pulse method (Roos et al., Physiol Rev, 61:296-434 (1981)). The subsequent sodium-dependent recovery of pHi by these cells in the absence of bicarbonate was monitored using a spectrofluorometer. Sodium-dependent proton extrusion in U87 glial cells and in primary astrocytes is mediated by the type 1 sodium proton exchanger (NHE1) (McLean et al., supra; Hegde et al., supra) and was monitored in the presence or absence of compound 3a or 3c.\nIC50 drug determinations for NHE1. This method utilizes spectrofluorometric measurements of [H^+]i as described above. The ammonium chloride prepulse method can be used to acidify cells in the presence of HR that is sodium-substituted with NMDG. Perfusion of the acidified cells with HR that contains sodium causes activation of NHE1 that is inhibited in a concentration-dependent fashion as described in McLean et al., supra."}, "U87 cells": {"test_system": "U87 cells", "experiment": "Intracellular translocation into U87 cells by fluorescence microscopy", "conditions": "50 μM; 90 and 180 min; 380 nm excitation, 510 nm emission", "source_text": "Fluorescence Microscopy. […] Excitation light was provided by a xenon arc lamp coupled to the Polychrome IV scanning monochromator (Till Photonics; Grafelfing, Germany) that alternately excites with different wavelengths. Excitation light was delivered by fiber optics to cells through the epifluorescence port of a Nikon E600 microscope coupled to a Nikon Fluor 60× water immersion lens. The detector was an Orca II-ER CCD digital camera (Hamamatsu USA; Bridgewater, N.J.), which is controlled by C-Imaging Simple PCI software (Compix; Cranberry Township, Pa.).\nIntracellular emission intensities were collected in regions of interest (ROI) from an average of 4-8 cells/field using Simple PCI imaging software. […] Images were captured as TIFF files (C-imaging Simple PCI software), and light and fluorescent images of the same field were imported in Photoshop 6.0 and vector graphics added using Illustrator 9.0.1 (Adobe; San Jose, Calif.)."}, "U87 glioma cells [7]": {"test_system": "U87 glioma cells", "experiment": "Glioma cell death, manual cell counts with trypan blue exclusion"}, "U87 glioma cells [8]": {"test_system": "U87 glioma cells", "conditions": "Hegde et al. 2004; cited from earlier work"}, "NHE1 [9]": {"target": "T2, NHE1", "design": "host or cells: CHO cell lines", "conditions": "CHO cell lines, published values; read-out: IC50 of cariporide (NHE); cited from earlier work"}, "U373": {"test_system": "U373", "conditions": "cited from earlier work"}, "U87 [10]": {"test_system": "U87", "conditions": "cited from earlier work"}, "T98G [11]": {"test_system": "T98G", "conditions": "cited from earlier work"}, "T98G [12]": {"test_system": "T98G", "conditions": "cited from earlier work", "remark": "listed apart in the source"}, "U87 [13]": {"test_system": "U87", "conditions": "cited from earlier work", "remark": "listed apart in the source"}, "A172": {"test_system": "A172", "conditions": "cited from earlier work"}, "[14]": {"conditions": "intrathecal infusion, tumor-implanted rats"}, "[15]": {"conditions": "intracerebral amiloride infusion"}}, "note": "“Also recorded” adds a separate entry of the source. Read-outs that look alike come from different tables or passages of the source.", "data": [{"smiles": "NC(N)=NC(=O)c1nc(Cl)c(N)nc1N", "note": "[Amiloride, 3,5-diamino-6-chloro-N-(diaminomethylene)pyrazinecarboxamide]", "values": [{"measurement": "Glioma Effect: antiproliferative concentration", "setting": "U87 glioma cells [1]", "result": "< 50", "unit": "µM"}, {"measurement": "Neuropathological changes in normal brain cell types", "setting": "[2]; Sprague-Dawley rats, 276 pmol/24 h intracerebral, 12 days", "result": "not observed; also recorded: no demonstrable neuropathology"}, {"measurement": "Balance and fine motor coordination (beam walk)", "setting": "[2]; [14]", "result": "did not affect"}, {"measurement": "Memory in a spatial learning task (probe trial)", "setting": "[2]; [14]", "result": "did not affect"}, {"measurement": "Doubling time, day postimplant 10", "setting": "[3]; 10 mM amiloride reservoir", "result": 3.07}, {"measurement": "Doubling time, day postimplant 12", "setting": "[3]; 10 mM amiloride reservoir", "result": 3.40}, {"measurement": "Doubling time, day postimplant 15", "setting": "[3]; 10 mM amiloride reservoir", "result": 3.99}, {"measurement": "Doubling time, day postimplant 17", "setting": "[3]; 10 mM amiloride reservoir", "result": 4.44}, {"measurement": "Effect on tumor growth rate", "setting": "[3]; 10 mM reservoir, 28 pmol/24 h, 0.14 nmol", "result": "did not affect"}, {"measurement": "Doubling time, day postimplant 10", "setting": "[3]; 100 mM amiloride reservoir", "result": 1.23}, {"measurement": "Doubling time, day postimplant 12", "setting": "[3]; 100 mM amiloride reservoir", "result": 1.98}, {"measurement": "Doubling time, day postimplant 15", "setting": "[3]; 100 mM amiloride reservoir", "result": "4.58+"}, {"measurement": "Doubling time, day postimplant 17", "setting": "[3]; 100 mM amiloride reservoir", "result": "11.65++"}, {"measurement": "Increase of tumor doubling time compared to vehicle-treated animals", "setting": "[3]; 100 mM reservoir, 276 pmol/24 h for 5 days, 1.4 nmol total", "result": 3, "unit": "fold"}, {"measurement": "Effect on normal brain cell types (histology)", "setting": "[3]; [15]", "result": "unaffected"}, {"measurement": "Glioma cell death in poorly vascularized tumor regions (eosin staining)", "setting": "[3]; [15]", "result": "necrotic glioma cell death"}, {"measurement": "Effect on tumor growth rates", "setting": "[3]; intracerebral infusion at relatively high doses vs vehicle", "result": "significantly slowed"}, {"measurement": "Rel. Activity", "setting": "NHE1 and NCX", "result": "NHE > NCX"}, {"measurement": "IC50", "setting": "NHE1 [4]", "result": 6, "unit": "µM"}, {"measurement": "Killing of astrocytes", "setting": "astrocytes", "result": "not astrocytes"}, {"measurement": "IC50", "setting": "NCX", "result": 500, "unit": "µM"}, {"measurement": "Glioma Effect: cytotoxic concentration", "setting": "U87 glioma cells [5]", "result": "≥ 500", "unit": "µM"}, {"measurement": "Reversal of NHE1 inhibition after removal of compound", "setting": "NHE1 [6]; U87 cells", "result": "slow and incomplete recovery; also recorded: prolonged and an incomplete recovery"}, {"measurement": "Intracellular accumulation in U87 cells", "setting": "U87 cells", "result": "intracellular accumulation; also recorded: rapid cell permeation"}, {"measurement": "Concentration that killed U87 glioma cells", "setting": "U87 glioma cells [7]; U87 glioma cells, C2am-Gly within 24 h", "result": 500, "unit": "µM"}, {"measurement": "Concentration that killed glioma cells", "setting": "U87 glioma cells [7]; glioma cells, amiloride within 48-72 hours", "result": "≥ 500", "unit": "µM"}]}, {"smiles": "CC(C)c1ccc(C(=O)NC(=N)N)cc1S(C)(=O)=O", "note": "[Cariporide]", "values": [{"measurement": "Killing of glioma cells by selective NHE inhibitor", "setting": "U87 glioma cells [8]", "result": "do not kill glioma cells"}, {"measurement": "Cytotoxicity to glioma cells", "setting": "U87 glioma cells [5]", "result": "cytotoxic"}, {"measurement": "Relative Potency", "setting": "NHE1 [6]; NHE inhibition relative to amiloride = 1", "result": 676}, {"measurement": "IC50", "setting": "NHE1 [6]; U87 glial cells, read-out: IC50 of cariporide (NHE inhibition)", "result": 0.074, "unit": "µM"}, {"measurement": "IC50", "setting": "NHE1 [9]", "result": 0.03, "unit": "µM"}]}, {"smiles": "Cn1nnc2c(C(N)=O)ncn2c1=O", "note": "[Temozolamide]", "values": [{"measurement": "Temozolamide sensitivity", "setting": "U373", "result": "yes"}, {"measurement": "Temozolamide sensitivity", "setting": "U87 [10]", "result": "yes"}, {"measurement": "Temozolamide sensitivity", "setting": "T98G [11]", "result": "no"}]}, {"smiles": "CN[C@@H]1C[C@H]2O[C@@](C)([C@@H]1OC)n1c3ccccc3c3c4c(c5c6ccccc6n2c5c31)C(=O)NC4", "note": "[staurosporine]", "values": [{"measurement": "G1 arrest with staurosporine", "setting": "T98G [12]", "result": "yes"}, {"measurement": "G1 arrest with staurosporine", "setting": "U87 [13]", "result": "yes"}, {"measurement": "G1 arrest with staurosporine", "setting": "A172", "result": "yes"}]}]}
